Here are results for 1 molecule from patent US7785846B2, “Method for the production of methionine” (Evonik Degussa GmbH, priority 2003, dated 2010).

Values after ≈ are worked out from the molar mass of the structure shown. Where only a bound is given, the exact number is not on record here.

Usually solubility stands for how much of the substance goes into solution per volume. Low values mean little dissolved substance, high ones much dissolved substance.

The conditions of series [1]: under these conditions (20° C. and 70° C.), compared with water.
A short description of the next series: physchem. The conditions noted are these: water.

For the molecule `CSCC[C@H](N)C(=O)O` [methionine], the “solubility in the fermentation broth” value in series [1] was “comparable order of magnitude”. The solubility in the series “physchem” (20 °C) was ~30 mg/mL (≈ 201 mM); in “physchem” (70 °C) it was > 90 mg/mL.
